Reference: ChEMBL document CHEMBL4330064, “Phytoestrogens and their synthetic analogues as substrate mimic inhibitors of CYP1B1” (Eur J Med Chem, 2019)

Key:
Cytochrome P450 1B1 [1] = target: T1, Cytochrome P450 1B1 (Homo sapiens, UniProt Q16678); experiment: Inhibition of […] CYP1B1 expressed in Escherichia coli DH5alpha cell membranes coexpressing human NADPH-cytochrome P450 reductase using 7-Ethoxyresorufin as substrate preincubated for 3 mins followed by NADPH addition measured after 10 mins by EROD assay
T1 sequence (Q16678 whole entry): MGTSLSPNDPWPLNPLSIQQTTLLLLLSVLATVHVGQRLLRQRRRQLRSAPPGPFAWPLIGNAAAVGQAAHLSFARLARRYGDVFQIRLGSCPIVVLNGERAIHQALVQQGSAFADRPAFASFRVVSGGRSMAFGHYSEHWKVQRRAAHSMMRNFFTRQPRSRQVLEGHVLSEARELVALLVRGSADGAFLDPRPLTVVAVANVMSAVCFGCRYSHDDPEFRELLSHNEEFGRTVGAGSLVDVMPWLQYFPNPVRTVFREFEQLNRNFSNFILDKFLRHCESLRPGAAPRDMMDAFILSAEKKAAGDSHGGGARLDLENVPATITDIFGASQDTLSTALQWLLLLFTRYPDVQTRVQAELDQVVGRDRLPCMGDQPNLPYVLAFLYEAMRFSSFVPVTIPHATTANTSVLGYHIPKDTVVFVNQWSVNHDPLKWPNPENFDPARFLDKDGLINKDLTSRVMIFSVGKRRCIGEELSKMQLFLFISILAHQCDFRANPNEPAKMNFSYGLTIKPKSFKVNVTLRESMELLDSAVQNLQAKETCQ

Cytochrome P450 1A1 [2] = target: T2, Cytochrome P450 1A1 (Homo sapiens, UniProt P04798); experiment: Inhibition of […] CYP1A1 expressed in Escherichia coli DH5alpha cell membranes coexpressing human NADPH-cytochrome P450 reductase using 7-Ethoxyresorufin as substrate preincubated for 3 mins followed by NADPH addition measured after 10 mins by EROD assay; format: ADME
T2 sequence (P04798 whole entry): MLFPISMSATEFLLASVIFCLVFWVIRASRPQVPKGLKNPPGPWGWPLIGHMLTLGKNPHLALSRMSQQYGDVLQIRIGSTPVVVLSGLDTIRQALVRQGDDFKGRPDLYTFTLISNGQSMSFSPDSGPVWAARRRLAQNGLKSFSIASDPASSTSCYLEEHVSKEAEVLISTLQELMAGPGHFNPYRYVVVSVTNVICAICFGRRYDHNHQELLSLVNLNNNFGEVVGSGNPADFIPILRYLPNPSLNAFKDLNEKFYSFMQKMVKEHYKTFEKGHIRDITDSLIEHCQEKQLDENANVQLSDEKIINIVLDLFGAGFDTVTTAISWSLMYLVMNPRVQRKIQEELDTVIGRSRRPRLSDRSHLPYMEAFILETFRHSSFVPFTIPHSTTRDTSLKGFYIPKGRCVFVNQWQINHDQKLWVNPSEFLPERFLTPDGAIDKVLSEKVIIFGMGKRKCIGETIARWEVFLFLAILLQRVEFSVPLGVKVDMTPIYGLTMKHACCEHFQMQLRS

Cytochrome P450 1A2 [3] = target: T3, Cytochrome P450 1A2 (Homo sapiens, UniProt P05177); experiment: Inhibition of […] CYP1A2 expressed in Escherichia coli DH5alpha cell membranes coexpressing human NADPH-cytochrome P450 reductase using 7-Ethoxyresorufin as substrate preincubated for 3 mins followed by NADPH addition measured after 10 mins by EROD assay; format: ADME
T3 sequence (P05177 whole entry): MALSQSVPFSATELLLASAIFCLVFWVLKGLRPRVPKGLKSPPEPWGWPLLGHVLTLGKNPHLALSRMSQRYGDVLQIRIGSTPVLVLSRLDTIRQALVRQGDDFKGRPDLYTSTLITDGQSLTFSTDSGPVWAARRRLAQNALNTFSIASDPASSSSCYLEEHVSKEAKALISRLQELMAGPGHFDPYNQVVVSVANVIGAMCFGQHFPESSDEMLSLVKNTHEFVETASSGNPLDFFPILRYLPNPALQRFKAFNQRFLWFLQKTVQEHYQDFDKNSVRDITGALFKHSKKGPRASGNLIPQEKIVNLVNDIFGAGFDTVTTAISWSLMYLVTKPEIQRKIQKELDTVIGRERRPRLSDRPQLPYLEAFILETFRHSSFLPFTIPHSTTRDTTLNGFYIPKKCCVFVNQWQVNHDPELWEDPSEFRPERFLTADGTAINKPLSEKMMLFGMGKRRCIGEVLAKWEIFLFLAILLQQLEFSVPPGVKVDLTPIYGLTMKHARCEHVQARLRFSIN

Cytochrome P450 1A1 [4] = target: T2, Cytochrome P450 1A1; experiment: Inhibition of human CYP1A1 using ethoxyresorufin as substrate by EROD assay; format: ADME
Cytochrome P450 1A1 [5] = target: T2, Cytochrome P450 1A1; experiment: Inhibition of human CYP1A1 using ethoxyresorufin as substrate by MROD assay; format: ADME
Cytochrome P450 1B1 [6] = target: T1, Cytochrome P450 1B1; experiment: Mixed type inhibition of human CYP1B1 by EROD assay
Cytochrome P450 1B1 [7] = target: T1, Cytochrome P450 1B1
Description: Inhibition of human CYP1B1 by EROD assay

Cytochrome P450 1A1 [8] = target: T2, Cytochrome P450 1A1; experiment: Inhibition of human CYP1A1 by EROD assay; format: ADME
Cytochrome P450 1B1 [9] = target: T1, Cytochrome P450 1B1; experiment: Inhibition of human CYP1B1 expressed in Escherichia coli DH5alpha cell membranes coexpressing human NADPH-cytochrome P450 reductase using 7-Ethoxyresorufin as substrate by EROD assay
Cytochrome P450 1B1 [10] = target: T1, Cytochrome P450 1B1; experiment: Inhibition of CYP1B1 in human HepG2 cells; format: cell-based
Cytochrome P450 1B1 [11] = target: T1, Cytochrome P450 1B1; experiment: Inhibition of human CYP1B1 using 7-Ethoxyresorufin as substrate after 30 mins in presence of NADP+ by EROD assay
Cytochrome P450 1A1 [12] = target: T2, Cytochrome P450 1A1; experiment: Inhibition of human CYP1A1 using 7-Ethoxyresorufin as substrate after 15 mins in presence of NADP+ by EROD assay; format: ADME
Cytochrome P450 1A2 [13] = target: T3, Cytochrome P450 1A2; experiment: Inhibition of human CYP1A2 using 7-Ethoxyresorufin as substrate after 50 mins in presence of NADP+ by EROD assay; format: ADME
Cytochrome P450 1B1 [14] = target: T1, Cytochrome P450 1B1; experiment: Inhibition of CYP1B1 in human MCF7 cells assessed as reduction in DMBA-induced CYP1B1-mediated EROD activity by EROD assay; format: cell-based
Cytochrome P450 1B1 [15] = target: T1, Cytochrome P450 1B1; experiment: Inhibition of CYP1B1 in human MCF7 cells assessed as reduction in TCDD-induced CYP1B1-mediated EROD activity by EROD assay; format: cell-based

SMILES | INH (Cytochrome P450 1B1 [1]) | INH (Cytochrome P450 1A1 [2]) | INH (Cytochrome P450 1A2 [3]) | further results
O=c1c(O)c(-c2ccc(O)c(O)c2)oc2cc(O)cc(O)c12 [QUERCETIN] | 23 µM | 77 µM | 418 µM | 
Oc1ccc(/C=C/c2cc(O)cc(O)c2)cc1 [RESVERATROL] |  |  |  | IC50 (Cytochrome P450 1A1 [4]): 23000 nM; IC50 (Cytochrome P450 1A1 [5]): 11000 nM; Ki (Cytochrome P450 1B1 [6]): 750 nM; IC50 (Cytochrome P450 1B1 [7]): 1400 nM
O=c1cc(-c2ccccc2)oc2cc(O)cc(O)c12 [CHRYSIN] | 0.28 µM | 6.2 µM | 0.42 µM | 
COc1ccc2c(c(OC)cc3c(=O)cc(-c4ccc(F)cc4)oc32)c1OC |  |  |  | IC50 (Cytochrome P450 1A1 [8]): 1 nM
O=c1c(O)c(-c2ccc(O)cc2)oc2cc(O)cc(O)c12 [KAEMPFEROL] |  | 52 µM |  | 
COc1ccc2cc3[n+](cc2c1OC)CCc1cc2c(cc1-3)OCO2 [BERBERINE] |  |  |  | IC50 (Cytochrome P450 1B1 [9]): 94 nM; IC50 (Cytochrome P450 1B1 [10]): 2500 nM
COc1cc2c(=O)cc(-c3ccc(F)cc3)[nH]c2c2c(OC)cccc12 |  |  |  | IC50 (Cytochrome P450 1B1 [11]): 3.9 nM; IC50 (Cytochrome P450 1A1 [12]): 10.5 nM; IC50 (Cytochrome P450 1A2 [13]): 190 nM
O=c1cc(-c2ccc(O)cc2)oc2cc(O)cc(O)c12 [APIGENIN] |  | 4.1 µM |  | 
C[C@]12CCCCC1=CC[C@@H]1[C@@H]2CC[C@]2(C)C(=O)[C@H](F)C[C@@H]12 |  |  |  | IC50 (Cytochrome P450 1B1 [14]): 500 nM; IC50 (Cytochrome P450 1B1 [15]): 2500 nM
COc1cc(-c2oc3cc(O)cc(O)c3c(=O)c2O)ccc1O [ISORHAMNETIN] | 30.1 µM | 25 µM | 137 µM | 
COc1cc2c(=O)cc(-c3cccc(Br)c3)[nH]c2c2c(OC)cccc12 |  |  |  | IC50 (Cytochrome P450 1B1 [11]): 3.6 nM
O=c1cc(-c2ccc(O)c(O)c2)oc2cc(O)cc(O)c12 [LUTEOLIN] | 0.36 µM | 1.2 µM | 8.9 µM | 
COc1ccc(-c2cc(=O)c3cc(OC)c4cccc(OC)c4c3[nH]2)cc1 |  |  |  | IC50 (Cytochrome P450 1B1 [11]): 4.1 nM
